Assays:
[1] = target: Muscarinic acetylcholine receptor M3 (Homo sapiens, UniProt P20309)
[2] = target: T1, Muscarinic acetylcholine receptor M2 (Homo sapiens, UniProt P08172)
T1 sequence (P08172 whole entry): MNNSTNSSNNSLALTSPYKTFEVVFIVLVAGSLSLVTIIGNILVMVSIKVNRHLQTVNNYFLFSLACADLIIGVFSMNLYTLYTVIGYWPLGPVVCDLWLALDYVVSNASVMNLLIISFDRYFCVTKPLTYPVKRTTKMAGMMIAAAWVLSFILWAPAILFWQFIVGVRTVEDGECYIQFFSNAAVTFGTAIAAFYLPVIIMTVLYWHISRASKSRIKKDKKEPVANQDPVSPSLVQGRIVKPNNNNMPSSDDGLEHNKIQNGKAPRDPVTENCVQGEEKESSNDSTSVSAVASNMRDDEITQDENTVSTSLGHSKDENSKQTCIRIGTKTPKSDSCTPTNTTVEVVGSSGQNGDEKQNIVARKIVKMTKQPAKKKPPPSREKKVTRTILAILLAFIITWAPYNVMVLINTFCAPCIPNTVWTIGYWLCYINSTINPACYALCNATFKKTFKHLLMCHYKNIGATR

[3] = target: T2, Muscarinic acetylcholine receptor M5 (Homo sapiens, UniProt P08912)
T2 sequence (P08912 whole entry): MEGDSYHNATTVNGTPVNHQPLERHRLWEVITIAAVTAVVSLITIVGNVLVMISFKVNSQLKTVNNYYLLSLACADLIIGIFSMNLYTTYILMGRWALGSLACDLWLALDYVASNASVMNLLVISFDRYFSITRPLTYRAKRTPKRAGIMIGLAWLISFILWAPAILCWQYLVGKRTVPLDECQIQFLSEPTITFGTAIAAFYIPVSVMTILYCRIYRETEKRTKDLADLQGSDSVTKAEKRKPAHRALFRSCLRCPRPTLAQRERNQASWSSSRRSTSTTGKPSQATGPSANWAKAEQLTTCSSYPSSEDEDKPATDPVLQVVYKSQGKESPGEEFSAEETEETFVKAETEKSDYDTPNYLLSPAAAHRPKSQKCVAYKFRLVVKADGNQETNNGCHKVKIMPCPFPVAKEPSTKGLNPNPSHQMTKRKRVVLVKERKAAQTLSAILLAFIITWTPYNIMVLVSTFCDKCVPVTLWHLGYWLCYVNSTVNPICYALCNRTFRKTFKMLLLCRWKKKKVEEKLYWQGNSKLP

Muscarinic acetylcholine receptor M3, sequence (P20309 whole entry): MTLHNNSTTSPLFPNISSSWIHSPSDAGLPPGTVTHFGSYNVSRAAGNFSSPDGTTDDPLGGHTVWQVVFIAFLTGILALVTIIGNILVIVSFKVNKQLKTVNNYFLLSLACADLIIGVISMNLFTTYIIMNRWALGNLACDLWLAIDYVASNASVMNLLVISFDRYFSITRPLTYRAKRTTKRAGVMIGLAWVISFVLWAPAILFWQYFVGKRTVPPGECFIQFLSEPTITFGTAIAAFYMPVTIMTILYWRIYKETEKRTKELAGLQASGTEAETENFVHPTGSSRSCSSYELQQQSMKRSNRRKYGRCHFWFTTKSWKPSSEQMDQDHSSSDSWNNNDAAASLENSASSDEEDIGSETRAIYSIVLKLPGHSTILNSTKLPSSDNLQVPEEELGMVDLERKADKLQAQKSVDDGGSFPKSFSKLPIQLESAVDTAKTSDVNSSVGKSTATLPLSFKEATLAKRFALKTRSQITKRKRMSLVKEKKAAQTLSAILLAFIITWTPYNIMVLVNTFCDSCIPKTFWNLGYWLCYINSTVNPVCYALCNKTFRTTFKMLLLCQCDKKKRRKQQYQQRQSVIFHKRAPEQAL

Compound | Ki [1] | Ki [2] | Ki [3]
Cc1n(CC#CCN2OCCC2=O)cc[n+]1C [2-[4-(2,3-Dimethyl-1H-imidazolium-1-yl)-2-butynyl]isoxazolidin-3-one iodide] | 75.9 nM | 275 nM | 132 nM
Cc1nccn1CC#CCOC1=NOCC1 [3-[4-(2-Methyl-1H-imidazol-1-yl)-2-butynyl]oxy-delta2-isoxazoline sesquifumarate] | 2.51 nM | 3.63 nM | 6.17 nM
Cc1nccn1CC#CCOc1ccon1 [3-[4-(2-Methyl-1H-imidazol-1-yl)-2-butynyl]oxyisoxazole sesquifumarate] | 110 nM | 282 nM | 209 nM

Results, then the molecule that gave them:

Ki [1] | Ki [2] | Ki [3] | Compound
6.31 nM | 93.3 nM | 51.3 nM | Cc1n(CC#CCOC2=NOCC2)cc[n+]1C [NSC_0]
17 nM | 112 nM | 60.3 nM | Cc1n(CC#CCOc2ccon2)cc[n+]1-c1ccc(Br)cc1 [NSC_0]
102 nM | 72.4 nM | 0.51 nM | Cc1nccn1CC#CCN1OCCC1=O [NSC_0]
